Target: T1, truncated human PLK1 (kinase domain) (Homo sapiens, UniProt P53350)
T1 construct: made in house; host or cells: baculovirus-infected T. ni insect cells
Assay: Assay for Inhibition of PLK1 (33P SPA enzyme activity)
Assay type: biochemical
Details: 1 μM ATP, 2 nM enzyme; read-out: Ave pIC50 PLK Enzyme Inhibition (converted)
Procedure: I. Assay for Inhibition of PLK1
A. Preparation of 6× N-Terminal His-Tagged PLK Kinase Domain
All procedures are performed at 4° C. Cells are lysed in 25 mM HEPES, 200 mM NaCl, 25 mM imidazole; pH 8.0. The homogenate is centrifuged at 14K rpm in a SLA-1500 rotor for 40 min and the supernatant filtered through a 1.2 micron filter. The supernatant is loaded onto a Nickel chelating Sepharose (Amersham Pharmacia) column and washed with 25 mM HEPES, 500 mM NaCl, 25 mM imidazole; pH 8.0. […] PLK is concentrated using a 10 kDa molecular weight cutoff membrane and then loaded onto a Superdex 75 gel filtration (Amersham BioSciences) column equilibrated in 25 mM HEPES, 1 mM DTT, 500 mM NaCl; pH 8.0. Fractions containing PLK are determined by SDS-PAGE. PLK is pooled, aliquoted and stored at […]. Samples are quality controlled using mass spectrometry.
B. Enzyme Activity±Inhibitors is Determined As Follows:
Compounds are added to the plate (1 μL in 100% DMSO).
Immediately upon addition of enzyme and thorough mixing, add 20 uL per well into 384-well white plates containing compounds and controls. […] The enzymatic reaction is stopped with 50 μl of bead mix (50 mM EDTA, 2 mg/ml Streptavidin-coated SPA beads in Standard Dulbecco's PBS (without Mg^2+and Ca^2+), and 60 μM ATP).

T1 sequence (P53350 21-346): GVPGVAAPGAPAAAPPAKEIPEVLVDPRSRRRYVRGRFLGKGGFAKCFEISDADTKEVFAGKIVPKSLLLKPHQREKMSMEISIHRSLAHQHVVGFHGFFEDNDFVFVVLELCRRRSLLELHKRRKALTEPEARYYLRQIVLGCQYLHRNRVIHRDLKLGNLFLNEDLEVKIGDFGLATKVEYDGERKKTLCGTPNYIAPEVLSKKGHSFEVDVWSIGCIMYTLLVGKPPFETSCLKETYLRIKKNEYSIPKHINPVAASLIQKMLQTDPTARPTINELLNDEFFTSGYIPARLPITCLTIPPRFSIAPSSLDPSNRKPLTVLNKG

Row | SMILES | IC50
1 | COc1ccc(Nc2ncc3c(C)nc(-c4ccccc4)n3n2)cc1 [Example 104, 5-Methyl-N-[4-(methyloxy)phenyl]-7-phenylimidazo[5,1-f][1,2,4]triazin-2-amine] | 0.1 to 10 µM
2 | CSc1ccc(Nc2ncc3c(C)nc(-c4ccccc4)n3n2)cc1 [Example 95, 5-Methyl-N-[4-(methylthio)phenyl]-7-phenylimidazo[5,1-f][1,2,4]triazin-2-amine] | 0.1 to 10 µM
3 | CCOC(=O)c1cncc(Nc2ncc3c(C)nc(-c4cccc(C(F)(F)F)c4)n3n2)c1 [Example 56, Ethyl 5-({5-methyl-7-[3-(trifluoromethyl)phenyl]imidazo[5,1-f][1,2,4]triazin-2-yl}amino)nicotinate] | 0.1 to 10 µM
4 | COc1cc(Nc2ncc3c(C)nc(-c4cccc(Nc5ccc(CN6CCN(C)CC6)cc5)c4)n3n2)cc(OC)c1OC [Example 68, 5-Methyl-7-[3-({4-[(4-methylpiperazin-1-yl)methyl]phenyl}-amino)phenyl]-N-/(3,4,5-trimethoxyphenyl)imidazo[5,1-f][1,2,4]triazin-2-amine] | > 10 µM
5 | COc1cc(Nc2ncc3c(C)nc(-c4cccc(Nc5cccc(CS(=O)(=O)N(C)C)c5)c4)n3n2)cc(OC)c1OC [Example 67, N,N-Dimethyl-1-{3-[(3-{5-methyl-2-[(3,4,5-trimethoxyphenyl)amino]imidazo[5,1-f][1,2,4]triazin-7-yl}phenyl)amino]phenyl}methanesulfonamide] | 0.1 to 10 µM
6 | COc1cc(Nc2ncc3c(C)nc(C4CCCCC4)n3n2)cc(OC)c1OC [Example 90, 7-Cyclohexyl-5-methyl-N-[3,4,5-tris(methyloxy)phenyl]imidazo[5,1-f][1,2,4]triazin-2-amine] | 0.1 to 10 µM
7 | COc1cc(Nc2ncc3c(C)nc(-c4cccc5cccnc45)n3n2)cc(OC)c1OC [Example 40, 5-Methyl-7-quinolin-8-yl-N-(3,4 5-trimethoxyphenyl)imidazo[5,1-f][1,2,4]triazin-2-amine] | > 10 µM
8 | COc1ccc(Nc2ncc3c(C)nc(-c4ccco4)n3n2)cc1 [Example 81, 7-(2-Furanyl)-5-methyl-N-[4-(methyloxy)phenyl]imidazo-[5,1-f][1,2,4]triazin-2-amine] | 0.1 to 10 µM
9 | COc1cc(Nc2ncc3c(C)nc(-c4sccc4Br)n3n2)cc(OC)c1OC [Example 10, 7-(3-Bromothien-2-yl)-5-methyl-N-(3,4,5-trimethoxyphenyl)-imidazo[1,5-f][1,2,4]triazin-2-amine] | 0.1 to 10 µM
10 | COc1cc(Nc2ncc3c(C)nc(-c4ccccc4NC(=O)C(F)(F)F)n3n2)cc(OC)c1OC [Example 7, 2,2,2-Trifluoro-N-(2-{5-methyl-2-[(3,4,5-trimethoxyphenyl)amino]-imidazo[5,1-f][1,2,4]triazin-7-yl}phenyl)acetamide] | 0.1 to 10 µM
11 | COc1ccc(Nc2ncc3c(C)nc(-c4ccccc4)n3n2)cc1OC [Example 92, N-[3,4-Bis(methyloxy)phenyl]-5-methyl-7-phenylimidazo[5,1-f][1,2,4]triazin-2-amine] | 0.1 to 10 µM
12 | COc1cc(Nc2ncc3c(C)nc(-c4ccoc4)n3n2)cc(OC)c1OC [Example 36, 7-(3-Furyl)-5-methyl-N-(3,4,5-trimethoxyphenyl)imidazo[5,1-f][1,2,4]triazin-2-amine] | 0.1 to 10 µM
13 | COC(=O)c1ccc(-c2nc(C)c3cnc(Nc4cc(OC)c(OC)c(OC)c4)nn23)cc1 [Example 29, Methyl 4-{5-methyl-2-[(3,4,5-trimethoxyphenyl)amino]imidazo-[5,1-f][1,2,4]triazin-7-yl}benzoate] | 0.1 to 10 µM
14 | COc1ccccc1-c1nc(C)c2cnc(Nc3cc(OC)c(OC)c(OC)c3)nn12 [Example 21, 7-(2-Methoxyphenyl)-5-methyl-N-(3,4,5-trimethoxyphenyl)-imidazo[5,1-f][1,2,4]triazin-2-amine] | 0.1 to 10 µM
15 | COc1cc(Nc2ncc3c(C)nc(-c4cccc(/C=C/C(N)=O)c4)n3n2)cc(OC)c1OC [Example 17, (2E)-3-(3-{5-Methyl-2-[(3,4,5-trimethoxyphenyl)amino]imidazo[5,1-f][1 2,4]triazin-7-yl}phenyl)prop-2-enamide] | < 0.1 µM
16 | Cc1nc(-c2ccccc2)n2nc(Nc3ccc([N+](=O)[O-])cc3)ncc12 [Example 18, 5-Methyl-N-(4-nitrophenyl)-7-phenylimidazo[5,1-f][1,2,4]triazin-2-amine] | 0.1 to 10 µM
17 | COc1cc(Nc2ncc3c(C)nc(-c4cccc(Nc5cccc(S(=O)(=O)NC6CC6)c5)c4)n3n2)cc(OC)c1OC [Example 69, N-Cyclopropyl-3-[(3-{5-methyl-2-[(3,4,5-trimethoxyphenyl)amino]imidazo[5,1-f][1,2,4]triazin-7-yl}phenyl)amino]benzenesulfonamide] | 0.1 to 10 µM
18 | COc1ccc(Nc2ncc3c(C)nc(-c4ccc(Br)s4)n3n2)cc1 [Example 70, 7-(5-Bromo-2-thienyl)-5-methyl-N-[4-(methyloxy)phenyl]imidazo[5.1-f][1,2,4]triazin-2-amine] | 0.1 to 10 µM
19 | COc1ccc(Nc2ncc3c(C)nc(-c4cn(C)c5ccccc45)n3n2)cc1 [Example 76, 5-Methyl-7-(1-methyl-1H-indol-3-yl)-N-[4-(methyloxy)phenyl]imidazo[5,1-f][1,2,4]triazin-2-amine] | 0.1 to 10 µM
20 | COc1ccc(Nc2ncc3c(C)nc(Cc4ccccc4)n3n2)cc1 [Example 88, 5-Methyl-N-[4-(methyloxy)phenyl]-7-(phenylmethyl)imidazo[5,1-f][1,2,4]triazin-2-amine] | 0.1 to 10 µM
21 | COc1ccc(Nc2ncc3c(C)nc(-c4ccc(OC)cc4)n3n2)cc1 [Example 87, 5-Methyl-N,7-bis[4-(methyloxy)phenyl]imidazo[5,1-f][1,2,4]triazin-2-amine] | 0.1 to 10 µM
22 | COc1cc(Nc2ncc3c(C)nc(-c4cncc(Br)c4)n3n2)cc(OC)c1OC [Example 11, 7-(5-Bromopyridin-3-yl)-5-methyl-N-(3,4,5-trimethoxyphenyl)-imidazo[5.1-f][1,2,4]triazin-2-amine] | 0.1 to 10 µM
23 | COc1cc(Nc2ncc3c(C)nc(-c4ccccc4NC(=O)C(C)(C)C)n3n2)cc(OC)c1OC [Example 6, 2,2-Dimethyl-N-(2-{5-methyl-2-[(3,4,5-trimethoxyphenyl)amino]-imidazo[5,1-f][1,2,4]triazin-7-yl}phenyl)propanamide] | > 10 µM
24 | Cc1nc(-c2ccccc2)n2nc(Nc3ccc(OCCN4CCOCC4)cc3)ncc12 [Example 102, 5-Methyl-N-(4-{[2-(4-morpholinyl)ethyl]oxy}phenyl)-7-phenylimidazo[5,1-f][1,2,4]triazin-2-amine] | 0.1 to 10 µM
25 | COc1ccc(Nc2ncc3c(C)nc(C4CC4)n3n2)cc1 [Example 84, 7-Cyclopropyl-5-methyl-N-[4-(methyloxy)phenyl]-imidazo[5,1-f][1,2,4]triazin-2-amine] | 0.1 to 10 µM
26 | Cc1nc(-c2ccccc2)n2nc(Nc3cccc(C(F)(F)F)c3)ncc12 [Example 26, 5-Methyl-7-phenyl-N-[3-(trifluoromethyl)phenyl]imidazo[5,1-f][1,2,4]triazin-2-amine] | 0.1 to 10 µM
27 | COc1ccc(Nc2ncc3c(C)nc(C(C)c4ccccc4)n3n2)cc1 (stereo not shown) [Example 77, 5-Methyl-N-[4-(methyloxy)phenyl]-7-(1-phenylethyl)imidazo[5,1-f][1,2,4]triazin-2-amine] | > 10 µM
28 | COc1ccc(OC)c(Nc2ncc3c(C)nc(-c4cccc(C(F)(F)F)c4)n3n2)c1 [Example 55, N-(2,5-Dimethoxyphenyl)-5-methyl-7-[3-(trifluoromethyl)phenyl]-imidazo[5,1-f][1,2,4]triazin-2-amine] | 0.1 to 10 µM

Reference: patent US7462614B2, “Imidazotriazine compounds” (Smithkline Beecham Corporation, priority 2003, dated 2008)
